From paper PMC8426295, “Cytotoxic and radiosensitising effects of a novel thioredoxin reductase inhibitor in breast cancer” (Investigational New Drugs, 2021)
Marks after values point to notes of the source that are not given here.

What was measured:
MDA-MB-436 cells = test: Drug-radiation combination clonogenic survival (LQ model); assay type: cell-based, human
Description: (§1) 5 × 10^5 cells were seeded in T25 cm^2 tissue culture flasks and incubated overnight. The sub-confluent cells were then treated either for 4-h or 48-h with IQ9 (0–5000 nM) or doxorubicin (10–20 nM). Following drug treatment, cells were collected, counted, and plated at low-density, in triplicate, and incubated, at 37 °C, 5% CO2, undisturbed, for 2 weeks for TNBC cells and 3 weeks for luminal cells, for colony formation. Colonies were fixed (50% methanol in 0.9% saline solution) and stained (0.5% crystal violet solution). Colonies consisting of more than 50 cells were confirmed by microscopy and scored as survivors. The plating efficiency (PE) was calculated as numbers of colonies formed/ numbers of cells plated. For single-agent treatment, drug or radiation, the surviving fraction was calculated as: number of colonies formed/ (numbers of cell plated x PE). For drug radiation combination experiments, cytotoxicity of drug treatment was accounted for by calculating surviving fraction as: number of colonies formed from each radiation dose/ (number of cells plated × PE × surviving fraction of drug-treated cell at 0 Gy).
(§2) Sub-confluent cells were irradiated with a dose of 2, 4, 6, or 8 Gy (at a dose rate of 0.87 Gy/min) using an RS225 x-ray cabinet irradiation system (Xstrahl Limited, UK), fitted with a 0.5 mm Cu filter and run at 195 kV, 10 mA. Following irradiation, cells were immediately trypsinised and plated for clonogenic survival. Sham-irradiated cells were used as controls. Dose-response curves were plotted as a function of radiation dose on a log/ linear plot. Clonogenic survival calculation software (CS-CAL), developed by the Translational Radiation Oncology Group, German Cancer Research Centre was used to fit survival curves to the linear-quadratic (LQ) model (equation: […] ). The software can be accessed online at http://angiogenesis.dkfz.de/oncoexpress/software/cs-cal/. For drug-radiation combinations, cells were treated with 1000 nM IQ9 (2500 nM for T47D) for 4 h followed by irradiation (0–8 Gy). For 48 h drug treatment experiments, MDA-MB-231 and T47D cells were treated with clonogenic IC50 concentrations of IQ9 before irradiation. The sensitiser enhancement ratio (SER), calculated by dividing the X-ray dose causing 1% cell survival in the absence of drug treatment by the X-ray dose leading to 1% cell survival in the presence of drug treatment, was used to evaluate the degree of radiosensitisation.
(§3) IC50 values were calculated from dose-response curves using an SPSS regression model between inhibition ratios and concentration gradients. The radiobiological parameters: alpha (α), beta (β), α/β ratio, and surviving fraction at 2 Gy (SF2) were extracted from the survival curves fitted using the LQ model. All results are presented as average ± standard deviation (SD) of three independent experiments, each performed in triplicate. Data were analysed using the student T-test and ANOVA one-way test. Statistical analysis was performed using SPSS 23.0 software. Values of P < 0.05 were considered statistically significant.

MDA-MB-468 cells = test: as above; assay type: cell-based, human
Description: as §1, §2, §3

[1] = 1000 nM IQ9 for 4 h followed by irradiation
[2] = 1000 nM IQ9 for 4 h followed by irradiation, at 1% cell survival
[3] = IQ9 for 4 h followed by irradiation, vs control

## COC1=CC(=O)c2c(c(COc3c(F)cc(F)cc3F)cn2C)C1=O [IQ9]
MDA-MB-436 cells; [1]
  SF2 (surviving fraction at 2 Gy): 0.07 ± 0.01
  α: 1.33 ± 0.06* Gy^−1
  α/β Ratio: 66.53 ± 2.89
  β: 0.02 ± 0.00 Gy^−2
MDA-MB-436 cells; [2]
  SER (sensitiser enhancement ratio): 1.43
MDA-MB-436 cells; [3]
  factor of increase in α: 1.8
MDA-MB-468 cells; [1]
  SF2 (surviving fraction at 2 Gy): 0.19 ± 0.01
  α: 0.85 ± 0.08* Gy^−1
  α/β Ratio: 85.00 ± 8.18
  β: 0.01 ± 0.00 Gy^−2
MDA-MB-468 cells; [2]
  SER (sensitiser enhancement ratio): 1.30
MDA-MB-468 cells; [3]
  factor of increase in α: 1.4
